Experimental data from US8632788B2, “Parenteral formulation for epothilone analogs” (Bristol-Myers Squibb Company, priority 2001, dated 2014).

Key:
[1] = Degradation of the drug during dissolution in tertiary butanol/water, lyophilization and secondary drying; type: physicochemical; conditions: dissolution at 5° C. in tertiary butanol/water, lyophilization at −16° C. 48 hours, drying at 15° C. under high vacuum 48 hours, light protected
Procedure: [1S-[1R*,3R*(E),7R*,10S*,11R*,12R*,16S*]]-[…]-8,8,10,12,16-pentamethyl-3-[1-methyl-2-(2-methyl-4-thiazolyl)ethenyl]-4-aza-17-oxabicyclo[14.1.0]heptadecane-5,9-dione, 9.86 g, was wetted/partially dissolved with 600 mL of a 9:1 mixture of tertiary butanol and Water for Injection USP which had been pre-cooled to 5° C. Once the drug powder had become completely wetted, dissolution was completed by the addition of 600 mL of a 1:9 mixture of tertiary butanol and Water for Injection and 766 mL of a 1:1 mixture of tertiary butanol and Water for Injection which likewise had been pre-cooled to 5° C. thereby making the final solution a 1:1 mixture. The dissolution was carried out under protection from light.
The solution formed above was promptly lyophilized in a Virtis INOTOP lyophilizer at −16° C. under light protectant conditions over a period of 48 hours. The resultant lyophilized product (lyophile) was then further dried at 15° C. under high vacuum for 48 hours. […] The lyophile was packaged under sterile conditions into 30 mL vials, each containing 10 mg of drug and standard excess to allow for vial/needle/syringe loss.

[2] = Physicochemical properties of the epothilone analogs relevant to compounding (solubility, stability in aqueous media, pH, light, wetting)
Description: Any one or two of these characteristics might be compensated for in compounding a pharmaceutical formulation for intravenous administration, but the combination of all of them presents a formidable challenge to the pharmaceutical compounding chemist.

[3] = Cytotoxic classification of the epothilone analogs

C/C(=C\c1csc(C)n1)C1C[C@@H]2O[C@]2(C)CCC[C@H](C)[C@H](O)[C@@H](C)C(=O)C(C)(C)[C@@H](O)CC(=O)N1 (relative stereo) [formula II, [1S-[1R*,3R*(E),7R*,10S*,11R*,12R*,16S*]]-7,11-Dihydroxy-8,8,10,12,16-pentamethyl-3-[1-methyl-2-(2-methyl-4-thiazolyl)ethenyl]-4-aza-7-oxabicyclo[14.1.0]heptadecane-5,9-dione]
degradation of the drug [1]: No detectable degradation | light sensitivity [2]: light sensitive | wetting characteristics [2]: exceptionally poor | solubility in aqueous media ([2]; aqueous media): very low solubility | degradation in contact with aqueous media ([2]; in contact with aqueous media): rapidly degrade | sensitivity to low pH ([2]; in solution): sensitive to low pH | cytotoxic class [3]: Class D
